Test results reported in patent US7375180B2, “Methods and compositions related to IRM compounds and Toll-like receptor 8” (3M Innovative Properties Company, priority 2003, dated 2008).

How the values were obtained:
TLR8 [1] = target: T1, TLR8 (Homo sapiens, UniProt Q9NR97); assay: Dose dependent TLR8-mediated NF-κB-luciferase response in HEK293 cells transfected with TLR8 (Example 5); type: cell-based; set-up: expressed in transfected cells; host or cells: HEK293 (ATCC CRL-1573), pIRES vector, G-418 selected, co-transfected with NFkB-luc reporter
T1 sequence (Q9NR97 27-1041): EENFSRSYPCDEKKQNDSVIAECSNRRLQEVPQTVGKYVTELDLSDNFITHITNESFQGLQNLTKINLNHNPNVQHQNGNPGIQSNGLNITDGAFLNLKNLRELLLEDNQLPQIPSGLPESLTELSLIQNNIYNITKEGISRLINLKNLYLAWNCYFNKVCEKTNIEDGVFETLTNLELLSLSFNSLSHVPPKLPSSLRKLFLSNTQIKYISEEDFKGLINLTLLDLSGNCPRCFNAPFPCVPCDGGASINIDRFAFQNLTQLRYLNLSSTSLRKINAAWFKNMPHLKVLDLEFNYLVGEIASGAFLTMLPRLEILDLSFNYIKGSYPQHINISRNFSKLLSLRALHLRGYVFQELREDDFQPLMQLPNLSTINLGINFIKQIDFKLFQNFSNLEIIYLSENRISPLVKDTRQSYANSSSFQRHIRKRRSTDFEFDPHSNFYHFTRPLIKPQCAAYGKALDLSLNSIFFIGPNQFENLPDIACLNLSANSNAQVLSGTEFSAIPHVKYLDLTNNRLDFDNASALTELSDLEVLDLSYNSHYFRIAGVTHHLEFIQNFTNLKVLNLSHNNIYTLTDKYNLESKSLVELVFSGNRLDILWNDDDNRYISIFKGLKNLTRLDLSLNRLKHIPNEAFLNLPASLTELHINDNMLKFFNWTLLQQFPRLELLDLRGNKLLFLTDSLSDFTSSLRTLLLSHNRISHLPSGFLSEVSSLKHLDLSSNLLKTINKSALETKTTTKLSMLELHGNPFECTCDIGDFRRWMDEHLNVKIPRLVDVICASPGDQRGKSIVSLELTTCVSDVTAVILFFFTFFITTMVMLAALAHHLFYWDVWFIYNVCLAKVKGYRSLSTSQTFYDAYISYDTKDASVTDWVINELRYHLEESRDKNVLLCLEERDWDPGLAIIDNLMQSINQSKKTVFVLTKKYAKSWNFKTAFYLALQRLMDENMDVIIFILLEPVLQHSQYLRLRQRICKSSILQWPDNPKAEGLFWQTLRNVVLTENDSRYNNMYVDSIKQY
Protocol: Twenty-four hours before transfection, HEK293 cells were adhered to a 10 cm dish (Corning 430167, Corning Inc., Corning, N.Y.) at 37° C., 8% CO2. The cells were co-transfected with (1) pIRES (BD Biosciences Clontech, Palo Alto, Calif.) either (a) unmodified (HEK293-vector) or (b) containing human TLR8 (HEK293-TLR8), and (2) NFkB-luc reporter (Stratagene, La Jolla, Calif.) in a 10:1 ratio with Fugene 6 transfection reagent (Roche Diagnostics Corp., Indianapolis, Ind.) following the manufacturer's instructions. The plates were incubated for 24 hours following transfection and then selected in G-418 (400 μg/mL) for two weeks. The G-418-resistant cells containing either the TLR8 or empty vector were expanded in HEK293 media supplemented with G-418 for stimulation experiments.
The transfected cells were plated in white opaque 96 well plates (Costar 3917, Corning Inc., Corning, N.Y.) at a concentration of 5×10^4 cells per well in 100 μL of HEK293 media and incubated at 37° C., 8% CO2 for 4 hours. The cells were stimulated with 1 μL of IRM compounds at 1 mM in DMSO (final IRM concentration of 10 μM) or 1 μL DMSO as a control. The plates were then incubated an additional 16 hours at 37° C., 5% CO2. Luminescence was measured on an LMAX luminometer (Molecular Devices Corp., Sunnyvale, Calif.).
HEK293 cells were transfected as described in Example 1. HEK293 cultures were incubated with IRM compound or a negative control compound (1,5-dihydro-1-(2-methylpropyl)-4H-imidazo[4,5-c]quinolin-4-one, U.S. Pat. No. 4,698,348, Example 71) at concentrations of 0.1 μM, 0.3 μM, 1.0 μM, 3.0 μM, 10 μM, or 30 μM, or a vehicle control. Cultures were otherwise incubated as described in Example 1. Luciferase signals were read in RLU (Relative Luciferase Units) as described in Example 1.

HEK293-vector = assay: NF-κB-luciferase reporter activation in HEK293-vector control cells, 10 μM IRM (Example 1); type: cell-based, human; settings: 16 hours, luciferase signal, vector-transfected cells; for fold induction at 10 µM: Homo sapiens, read-out: Fold Increase Over DMSO Control, HEK293-vector
Description: (§1) HEK293 cells, derived from human embryonic kidney cells, may be co-transfected with (1) either a control vector (HEK293-vector) or a vector construct including human TLR8 (HEK293-TLR8), and (2) an NF-κB-luciferase reporter. The NF-κB-luciferase reporter provides a luciferase signal upon NF-κB activation in a transfected cell. Thus, TLR8-mediated NF-κB activity can be detected by exposing the cells transfected with vector and the cells transfected with the TLR8 construct to a test compound, then comparing the luciferase signal of the vector-transfected cells with the luciferase signal of the cells transfected with the TLR8 construct.
(§2) HEK293 cells were cultured in 90% Minimum Essential Medium (MEM) with 2 mM L-glutamine and Earle's Balanced Salt Solution (Invitrogen Corp., Rockville, Md.) adjusted to contain 1.5 g/L sodium bicarbonate, 0.1 mM non-essential amino acids, and 1.0 mM sodium pyruvate; 10% heat-inactivated fetal calf serum. The cells were incubated at 37° C., 8% CO2.
(§3) The cells were co-transfected with (1) pIRES (BD Biosciences Clontech, Palo Alto, Calif.) either (a) unmodified (HEK293-vector) or (b) containing human TLR8 (HEK293-TLR8), and (2) NFkB-luc reporter (Stratagene, La Jolla, Calif.) in a 10:1 ratio with Fugene 6 transfection reagent (Roche Diagnostics Corp., Indianapolis, Ind.) following the manufacturer's instructions.
(§4) The cells were stimulated with 1 μL of IRM compounds at 1 mM in DMSO (final IRM concentration of 10 μM) or 1 μL DMSO as a control. The plates were then incubated an additional 16 hours at 37° C., 5% CO2. Luminescence was measured on an LMAX luminometer (Molecular Devices Corp., Sunnyvale, Calif.).

TLR8 [2] = target: T1, TLR8; assay: NF-κB-luciferase reporter activation in HEK293-TLR8 cells, 10 μM IRM (Example 1); type: cell-based; set-up: expressed in transfected cells; host or cells: HEK293 (ATCC CRL-1573), pIRES vector, G-418 selected, co-transfected with NFkB-luc reporter; settings: for Fold Increase Over DMSO Control, HEK293-TLR8: 16 hours, luciferase signal, TLR8-transfected cells; for Fold Increase Over DMSO Control, HEK293-TLR8 / HEK293-vector: ratio of TLR8-transfected to vector-transfected cells
Description: as §1, §2, §3, §4

| Compound | Fold Increase Over DMSO Control, HEK293-TLR8 (TLR8 [2]) [fold] | Fold Increase Over DMSO Control, HEK293-TLR8 / HEK293-vector (TLR8 [2]) | fold induction at 10 µM (HEK293-vector) | further results |
| --- | --- | --- | --- | --- |
| CCOCc1nc2c(N)nc3c(c2n1NC(C)C)CCCC3 [IRM60, 2-ethoxymethyl-N^1-isopropyl-6,7,8,9-tetrahydro-1H-imidazo[4,5-c]quinoline-1,4-diamine] |  |  |  | Fold increase over vehicle (TLR8 [1]; 0.1 μM): 1.1 fold; Fold increase over vehicle (TLR8 [1]; 0.3 μM): 1.0 fold; Fold increase over vehicle (TLR8 [1]; 1.0 μM): 1.1 fold; Fold increase over vehicle (TLR8 [1]; 3.0 μM): 2.7 fold; Fold increase over vehicle (TLR8 [1]; 10 μM): 6.2 fold; Fold increase over vehicle (TLR8 [1]; 30 μM): 9.1 fold |
| CCOCc1nc2c(N)nc3cc(-c4ccc(C(=O)N(C)OC)cc4)ccc3c2n1CC(C)(C)O [IRM61, 4-[4-amino-2-ethoxymethyl-1-(2-hydroxy-2-methylpropyl)-1H-imidazo[4,5-c]quinolin-7-yl]-N-methoxy-N-methylbenzamide] |  |  |  | Fold increase over vehicle (TLR8 [1]; 0.1 μM): 1.0 fold; Fold increase over vehicle (TLR8 [1]; 0.3 μM): 1.1 fold; Fold increase over vehicle (TLR8 [1]; 1.0 μM): 2.9 fold; Fold increase over vehicle (TLR8 [1]; 3.0 μM): 6.7 fold; Fold increase over vehicle (TLR8 [1]; 10 μM): 10.3 fold; Fold increase over vehicle (TLR8 [1]; 30 μM): 9.4 fold |
| CCOCc1nc2c(N)nc3c(c2n1CC(C)(C)O)CCCC3 [IRM 1, 4-amino-2-ethoxymethyl-α,α-dimethyl-6,7,8,9-tetrahydro-1H-imidazo[4,5-c]quinoline-1-ethanol] | 8.64 | 10.2 | 0.85 |  |
| CCCCNC(=O)NCCCCn1c(CCCC)nc2c(N)nc3cccnc3c21 [IRM 5, N-[4-(4-amino-2-butyl-1H-imidazo[4,5-c][1,5]naphthyridin-1-yl)butyl]-n′-butylurea] | 2.13 | 2.5 |  | Fold Increase Over DMSO Control, HEK293-vector (HEK293-vector): 0.84 fold |
| CCCCc1nc2c(N)nc3cccnc3c2n1CCNC(=O)C(N)CC(C)C (stereo not drawn) [IRM 6, N^1-[2-(4-amino-2-butyl-1H-imidazo[4,5-c][1,5]naphthyridin-1-yl)ethyl]-2-amino-4-methylpentanamide] | 9.24 | 7.8 | 1.19 |  |
| Nc1nc2ccccc2c2c1ncn2CCCCNC(=O)c1ccccc1Oc1ccccc1 [IRM 7, N^1-[4-(4-amino-1H-imidazo[4,5-c]quinolin-1-yl)butyl]-2-phenoxybenzamide] | 10.69 | 10.5 | 1.02 |  |
| Nc1nc2ccccc2c2c1ncn2CCOCC#Cc1ccncc1.O=C(O)C(F)(F)F.O=C(O)C(F)(F)F [IRM 8, 1-(2-{[3-(4-pyridyl)-2-propynyl]oxy}ethyl)-1H-imidazo[4,5-c]quinolin-4-amine bis(trifluoroacetate)] | 2.38 | 2.0 | 1.18 |  |
| CCc1nc2c(N)nc3ccccc3c2n1CCCCS(=O)(=O)c1cc(Cl)cc(Cl)c1 [IRM 12, 1-{4-[(3,5-dichlorophenyl)sulfonyl]butyl}-2-ethyl-1H-imidazo[4,5-c]quinolin-4-amine] | 6.04 | 5.2 | 1.16 |  |

The next lines start with results.

| Fold Increase Over DMSO Control, HEK293-TLR8 (TLR8 [2]) [fold] | Fold Increase Over DMSO Control, HEK293-TLR8 / HEK293-vector (TLR8 [2]) | Compound | fold induction at 10 µM (HEK293-vector) | further results |
| --- | --- | --- | --- | --- |
| 10.18 | 8.8 | COCCc1nc2c(N)nc3ccccc3c2n1CC(C)(C)O [IRM 2, 4-amino-α,α-dimethyl-2-methoxyethyl-1H-imidazo[4,5-c]quinoline-1-ethanol] |  | Fold Increase Over DMSO Control, HEK293-vector (HEK293-vector): 1.16 fold |
| 2.64 | 6.4 | CCOCc1nc2c(N)nc3ccccc3c2n1CCOCCCOCc1ccccc1 [IRM 4, 1-{2-[3-(benzyloxy)propoxy]ethyl}-2-(ethoxymethyl)-1H-imidazo[4,5-c]quinolin-4-amine] | 0.41 |  |
| 8.64 | 11.2 | CCCCc1nc2c(N)nc3ccccc3c2n1CCNS(C)(=O)=O [IRM 9, N-[2-(4-amino-2-butyl-1H-imidazo[4,5-c]quinolin-1-yl)ethyl]methanesulfonamide] | 0.77 |  |
| 7.25 | 6.7 | COCCc1nc2c(N)nc3ccccc3c2n1CCOCCNC(=O)Nc1ccccc1 [IRM 10, N-(2-{2-[4-amino-2-(2-methoxyethyl)-1H-imidazo[4,5-c]quinolin-1-yl]ethoxy}ethyl)-n′-phenylurea] |  | Fold Increase Over DMSO Control, HEK293-vector (HEK293-vector): 1.08 fold |
| 3.14 | 2.1 | CCOCc1nc2c(N)nc3ccccc3c2n1CC(C)(C)N [IRM 11, 1-(2-amino-2-methylpropyl)-2-(ethoxymethyl)-1H-imidazo[4,5-c]quinolin-4-amine] | 1.47 |  |
| 2.33 | 2.3 | CCOCc1nc2c(N)nc3ccccc3c2n1CCOCCNC(=O)NC1CCCCC1 [IRM 13, N-(2-{2-[4-amino-2-(ethoxymethyl)-1H-imidazo[4,5-c]quinolin-1-yl]ethoxy}ethyl)-n′-cyclohexylurea] |  | Fold Increase Over DMSO Control, HEK293-vector (HEK293-vector): 0.99 fold |
